According to patent publication US11400070B2, “Methods of treating retinal diseases” (Alimera Sciences, Inc., priority 2018, dated 2022):
Read-outs that look alike come from different tables or passages of the source.

How the values were obtained:
ARPE-19 monolayers [1] = assay: Suppression of gHSA-induced reduction of TEER in confluent ARPE-19 monolayers; format: cell-based
ARPE-19 monolayers [2] = assay: Cytotoxicity by microscopic inspection of monolayers and TEER reduction; format: cell-based; details: for Cytotoxic: ARPE-19 monolayers, any concentration tested; for Cytotoxicity observed: any of the concentrations tested
Procedure: Cytotoxicity of test compounds was assessed by microscopic inspection of cellular monolayers and reductions in TEER following the administration of test compounds. All compounds were formulated fresh on the day of the experiment. Final concentrations were prepared by serial dilutions in DMEM media. Separate vehicle controls were prepared for each study. Formulation for all agents utilized vehicles containing less than 0.1% DMSO.

rd10 mice [3] = assay: Cone cell density in rd10 mice; format: in vivo, mouse; details: P65; 40 mg/kg daily s.c.; 4 quadrants
Procedure: (§1) Mice were treated in accordance with the Association for Research in Vision and Ophthalmology. Rd10^+/+ mice (B6.CXB1-Pde6brd10/J) were given daily subcutaneous injections of 40 mg/kg metipranolol provided by the British Pharmacopoeia Commission Laboratory, Tddington, UK or vehicle (PBS containing 5.8% ethanol) between P14 to P65.
Cone cell density was measured by methods known by one of skill in the arts. See Komeima K, Rogers B S, Lu L, Campochiaro P A. Antioxidants reduce cone cell death in a model of retinitis pigmentosa. Proc Natl Acad Sci USA 2006; 103:11300-5 and Komeima K, Rogers B S, Campochiaro P A. Antioxidants slow photoreceptor cell death in mouse models of retinitis pigmentosa. J Cell Physiol 2007; 213:809-15. Briefly, mice at P65 were euthanized and the eyes were removed and fixed in 4% PFA for 1 hour followed by dissection to remove cornea, iris and lens. The retina was carefully isolated from the eyecup and a small incision was made at the nasal position for future orientation. […] The retinas were flat mounted and visualized by fluorescence microscopy using an excitation wavelength of 543 nm to detect rhodamine fluorescence of PNA.

rd10 mice [4] = assay: Nitrite and nitrotyrosine assays in retinas of rd10 mice; format: in vivo, mouse; details: 40 mg/kg daily s.c.
Procedure: as §1
Nitrite concentration in retinas from P35 rd10 mice was measured using the Nitrate/Nitrite Colorimetric Assay Kit (Cayman Chemical Company, Ann Arbor, Mich.) according to the manufacturer's instructions. Nitrotyrosine assay was performed on retinas from P35 mice using the 3-Nitrotyrosine ELISA kit (Abcam, Cambridge, Mass.).

rd10 mice [5] = assay: Scotopic and photopic electroretinogram recordings in rd10 mice; format: in vivo, mouse
Procedure: as §1
Scotopic and photopic electroretinograms (ERGs) were recorded using a Diagnosys instrument (Espion, Littleton, Mass.). See Komeima K, Rogers B S, Lu L, Campochiaro P A. Antioxidants reduce cone cell death in a model of retinitis pigmentosa. Proc Natl Acad Sci USA 2006; 103:11300-5 and Komeima K, Rogers B S, Campochiaro P A. Antioxidants slow photoreceptor cell death in mouse models of retinitis pigmentosa. J Cell Physiol 2007; 213:809-15. For scotopic recordings, rd10 mice were dark adapted for overnight, anesthetized with a mixture of ketamine (100 mg/kg) and xylazine (5 mg/kg) by intraperitoneal injections, and pupils were dilated with 0.5% tropicamide and 0.5% phenylephrine hydrochloride provided by Santen Pharmaceutical Co., Osaka, Japan. Mice were placed on a heating pad and platinum electrodes were placed on the corneas after application of gonioscopic prism solution provided by Alcon Labs, Fort Worth, Tex. Reference electrode was attached subcutaneously between the eyes on the scalp and a ground electrode was attached to the tail. The Ganzfeld illuminator was then placed over the head in a position to ensure equal illumination to both eyes. Scotopic ERGs were recorded at 11 flash intensities (−4, −2.5, −2.2, −1.79, −1.39, −1, −0.6, −0.39, −0.20, 1.0, 1.39 log cd-s/m2). For each flash intensity, 5 readings were taken and averaged. For photopic ERGs, mice were initially light adapted for 7 minutes with 30 cd/m2 background light and flashed at 3 light intensities (0.6, 1.0, 1.39 log cd-s/m2). For each flash intensity, 5 readings were taken and averaged.

rd10 mice [6] = assay: Outer nuclear layer (ONL) thickness in rd10 mice; format: in vivo, mouse; details: P35; 40 mg/kg daily s.c.; 6 locations measured
Procedure: as §1
Measurements of ONL thickness were performed using methods known to one of skill in the art. See Lee S Y, Usui S, Zafar A B, et al. N-acetylcysteine promotes long term survival of cones in a model of retinitis pigmentosa. 2010; 226:1843-9. Briefly, 10 micron frozen ocular sections were cut in the 12:00 to 6:00 meridian, stained with hematoxylin and eosin, visualized with an Axioskop microscope from Zeiss, Thornwood, N.Y. and images were digitized using a three charge-coupled device (CCD) color video camera from Toshiba, Tokyo, Japan, and a frame grabber. […] Three separate sections were used for each mouse and averaged. Eight animals injected with vehicle and 9 animals injected with metipranolol were used to evaluate ONL thickness between these two groups.

NADPH Oxidase = NADPH Oxidase activity in retinas of rd10 mice; format: in vivo, mouse
rd10 mice [7] = assay: Superoxide radicals (dihydroethidium dye) in rd10 retinas; format: in vivo, mouse; details: data not shown
C57bl/6 female mice = assay: Laser-induced choroidal neovascularization at Bruch's membrane rupture sites; format: in vivo, mouse; details: 40 mg/kg daily s.c., 3 days before to 1 week after laser
Procedure: Choroidal neovascularization was induced by methods known to one of ordinary skill in the art. […] Am J Pathol 1998; 153(5):1641-6. Adult C57bl/6 female mice (Charles River, Wilmington, Mass.), 5 weeks of age, were given daily subcutaneous injections of 40 mg/kg metipranolol or vehicle (PBS containing 5.8% ethanol) every day, starting 3 days before laser-induced Bruch's membrane rupture and continuing through 1 week after laser treatment. Mice were anesthetized, with a mixture of ketamine (100 mg/kg) and xylazine (5 mg/kg) by intraperitoneal injections, and pupils were dilated with 0.5% tropicamide and 0.5% phenylephrine hydrochloride from Santen Pharmaceutical Co., Osaka, Japan. […] Following 1 week after laser, animals were euthanized and choroidal neovascularization was measured. […] The remaining eyecups consisting of the retinal pigmented epithelium, choroid, and sclera were stained with FITC-labeled Griffonia Simplicifolia lectin (GSA), which selectively stains vascular cells, fluorescent images were captured with an Axioskop microscope from Zeiss, Thornwood, N.Y., and the area of choroidal neovascularization at Bruch's membrane rupture sites were measured. These images were quantified using Image-Pro Plus software. […]

rd10 mice [8] = assay: Immunohistochemistry (rhodopsin, cone arrestin, 3-nitrotyrosine) of rd10 retinas; format: in vivo, mouse; details: 40 mg/kg daily s.c.
Procedure: as §1
Ten microns ocular frozen sections were stained with anti-rhodopsin antibody 1D4 (1:200, ThermoFisher Scientific, Waltham, Mass.), anti-3-nitrotyrosine antibody (10 μg/ml, EMD Millipore, Temecula, Calif.) or anti-cone arrestin antibody (1:10,000, EMD Millipore, Temecula, Calif.).

rd10 mice [9] = assay: TUNEL assay in retinas of rd10 mice; format: in vivo, mouse; details: P23; 40 mg/kg daily s.c.
Procedure: as §1
Apoptotic cells were identified in retinas from P23 mice using the manufacturer's instructions for the In Situ Cell Death Detection Kit (Sigma Aldrich, St. Louis, Mo.).

In the case of `Cc1cc(OCC(O)CNC(C)C)c(C)c(C)c1O` (centres unmarked) [Desacetylmetipranolol, desacetylmetipranolol], the “Effect on gHSA induced reduction in RPE resistance (TEER)” value (ARPE-19 monolayers [1]; pretreatment 10 μM, 4 and 6 hours after gHSA) is reported as “suppressed the gHSA induced reduction in RPE resistance”, the EC50 (ARPE-19 monolayers [1]; read-out: EC50 for suppression of the decrease in TEER induced by gHSA, pretreatment, gHSA 100 μg/mL) is reported as 980 nM and the Cytotoxic (ARPE-19 monolayers [2]) is reported as “No”. For the same compound, the Cytotoxicity observed (ARPE-19 monolayers [2]) was “No cytotoxicity was observed”.

In the case of `CC1(C)O[C@@H]2C[C@H]3[C@@H]4C[C@H](F)C5=CC(=O)C=C[C@]5(C)[C@@]4(F)[C@@H](O)C[C@]3(C)[C@]2(C(=O)CO)O1` [Fluocinolone, fluocinolone acetonide], the “Effect on reduction in TEER induced by gHSA” value (ARPE-19 monolayers [1]; pretreatment 10^−6 to 10^−4 M, gHSA 100 μg/mL) is reported as “did not significantly alter”, the Cytotoxic (ARPE-19 monolayers [2]) is reported as “No” and the Cytotoxicity observed (ARPE-19 monolayers [2]) is reported as “No cytotoxicity was observed”.

`CC(=O)Oc1c(C)cc(OCC(O)CNC(C)C)c(C)c1C` (centres unmarked) [Metipranolol, metipranolol] was tested, and the “Mean cone photoreceptor cell density vs vehicle” value (rd10 mice [3]) was “significantly greater in 3 of 4 quadrants”, the “Mean concentration of nitrite in retinal homogenates” value (rd10 mice [4]; P35) was “significantly greater in retinal homogenates from P35 vehicle-treated versus metipranolol-treated rd10 mice” and the “Mean concentration of 3-nitrotyrosine protein adducts (ELISA) vs vehicle” value (rd10 mice [4]; P35 retinas) was “significant reduction”. The EC50 (ARPE-19 monolayers [1]; Homo sapiens, ARPE-19 assay, concentration-response, gHSA-induced TEER decrease, read-out: EC50) was 1300 nM, the “Mean scotopic b-wave amplitude vs vehicle” value (rd10 mice [5]; P35, 40 mg/kg daily s.c. from P14, all 11 flash intensities) was “significantly higher” and the “Mean scotopic a-wave amplitude vs vehicle” value (rd10 mice [5]; P35, 40 mg/kg daily s.c. from P14, flash 1.0 and 1.39 log cd-s/m2) was “significantly greater”. The “Photopic b-wave amplitudes vs vehicle” value (rd10 mice [5]; P35, 40 mg/kg daily s.c., 0.6 and 1.0 log cd-s/m2) was “significantly higher”, the “Mean scotopic b-wave amplitude vs vehicle” value (rd10 mice [5]; P50, 40 mg/kg daily s.c., 1.0 and 1.39 log cd-s/m2) was “significantly higher” and the “Mean photopic b-wave amplitude vs vehicle” value (rd10 mice [5]; P50, 40 mg/kg daily s.c., 1.39 log cd-s/m2) was “significantly greater”. For the same compound, the “Mean ONL thickness vs vehicle” value (rd10 mice [6]) was “significantly greater at 4 of the 6 locations”, the “NADPH Oxidase activity” value (NADPH Oxidase) was “did not reduce NADPH Oxidase activity” and the Cytotoxic (ARPE-19 monolayers [2]) was “No”. The Cytotoxicity observed (ARPE-19 monolayers [2]) was “No cytotoxicity was observed”, the “Superoxide radicals (dihydroethidium dye) vs vehicle” value (rd10 mice [7]) was “no differences were found” and the “Area of choroidal neovascularization at Bruch's membrane rupture sites vs vehicle” value (C57bl/6 female mice) was “significantly reduced”. For the same compound, the “Rhodopsin staining of outer segments” value (rd10 mice [8]; P35) was “substantially more rhodopsin staining”, the “Staining for cone arrestin” value (rd10 mice [8]; P50) was “robust” and the Staining for nitrotyrosine (rd10 mice [8]; P50) was “greater staining for nitrotyrosine in retinas from P50 vehicle-treated rd10 mice, than in P50 metipranolol-treated rd10 mice”. For the same compound, the “TUNEL-positive cells in retina” value (rd10 mice [9]) was “few TUNEL-positive cells”.
